Our source for the GI50 and TGI values is PubChem BioAssay (NCI).

Some test systems named below: BT-549 breast; SK-MEL-2 melanoma; UO-31 renal; ACHN renal; HT29 colon; SR leukemia; M14 melanoma; SK-MEL-28 melanoma; NCI-H460 lung; CAKI-1 renal.
Common to all, as to assay: growth of human tumour cells (NCI), 48 h

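Grown in 96-well plates, cells were treated for 48 hours with each compound at five concentrations. Insufficient inhibition: endpoint recorded as highest concentration tested. GI50: concentration for 50% inhibition of growth. TGI marks complete inhibition of growth.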 A value given as a limit tells only on which side of the number the result lay.

Turning to `c1ccc2[nH]c(-c3ccc(Nc4nc(N5CCCC5)nc5[nH]ncc45)cc3)nc2c1`, the GI50 with BT-549 breast is 1680 nM; in the experiment with SK-MEL-2 melanoma it was 1.71 µM; in the experiment on UO-31 renal, 1460 nM; in the experiment on ACHN renal, 0.347 µM; in the experiment with HT29 colon it was 211 nM; with SR leukemia, 254 nM. Further, the GI50 in the experiment with M14 melanoma was 0.403 µM; in the experiment with SK-MEL-28 melanoma it was 0.181 µM; in the experiment on NCI-H460 lung it was 412 nM; in the experiment with CAKI-1 renal, 1830 nM. Also, the TGI was 3.47 µM in the experiment with BT-549 breast; 3.37 µM in the experiment on SK-MEL-2 melanoma; 3.54 µM with UO-31 renal; 1.07 µM in the experiment on ACHN renal; 0.495 µM in the experiment on HT29 colon; 0.87 µM with SR leukemia. In addition, the TGI in the experiment with M14 melanoma stood at 1.62 µM; with SK-MEL-28 melanoma, 0.338 µM; in the experiment with NCI-H460 lung, 1.77 µM; in the experiment with CAKI-1 renal it was 3.48 µM.

Turning to `O=C(Nc1ccccc1/C=C/c1n[nH]c2ccccc12)c1ccccc1`, the GI50 was 3970 nM in the experiment with BT-549 breast; 5.03 µM with SK-MEL-2 melanoma; 4140 nM in the experiment on UO-31 renal; 7.71 µM in the experiment with ACHN renal; 1780 nM in the experiment on HT29 colon; 2870 nM with SR leukemia. The GI50 in the experiment with M14 melanoma is 3.32 µM; in the experiment with SK-MEL-28 melanoma, 4.31 µM; in the experiment on NCI-H460 lung, 2150 nM; with CAKI-1 renal it was 2980 nM. Moreover, the TGI in the experiment on BT-549 breast was 16.1 µM; in the experiment on SK-MEL-2 melanoma, 16.5 µM; in the experiment with UO-31 renal, 19.3 µM; in the experiment with ACHN renal, 20.1 µM; with HT29 colon it was 7 µM; with SR leukemia, 13.7 µM. Also, the TGI is 15 µM with M14 melanoma, 17.7 µM with SK-MEL-28 melanoma, 11.2 µM in the experiment with NCI-H460 lung and 16.9 µM in the experiment on CAKI-1 renal.

For `CCOC(=O)c1sc2nc(=S)[nH]c(NC(N)=S)c2c1C`, the GI50 was 12600 nM with BT-549 breast; 46.7 µM with SK-MEL-2 melanoma; 20300 nM in the experiment on UO-31 renal; 15.7 µM with ACHN renal; 20100 nM in the experiment on HT29 colon; 20900 nM with SR leukemia. Moreover, the GI50 in the experiment on M14 melanoma was 26.5 µM; in the experiment on SK-MEL-28 melanoma, 19 µM; in the experiment with NCI-H460 lung, 23200 nM; with CAKI-1 renal, 31400 nM. Besides, the TGI in the experiment with BT-549 breast was 41 µM; with SK-MEL-2 melanoma it was above 100 µM; in the experiment with UO-31 renal, 61.7 µM; with ACHN renal, 32.8 µM; in the experiment on HT29 colon, 52.9 µM; in the experiment on SR leukemia it was 64.7 µM. The TGI came to 64.6 µM in the experiment with M14 melanoma, 41.6 µM in the experiment with SK-MEL-28 melanoma, 61 µM in the experiment on NCI-H460 lung and 61.7 µM in the experiment on CAKI-1 renal.

As for `CC(NC(=O)c1ccc(Cl)c(Cl)c1)c1ccc(-c2ccccc2)cc1` (stereo not given), the TGI in the experiment with BT-549 breast is above 100 µM; in the experiment on SK-MEL-2 melanoma, above 100 µM; in the experiment on UO-31 renal, 29.4 µM; in the experiment with ACHN renal, above 100 µM; in the experiment on HT29 colon, above 100 µM; in the experiment with SR leukemia, 40.3 µM. Besides, the TGI in the experiment with M14 melanoma, in the experiment on SK-MEL-28 melanoma, in the experiment with NCI-H460 lung and in the experiment on CAKI-1 renal was above 100 µM in each case.

Regarding `C=C1C(=O)O[C@@H]2C[C@@]3(C)CCC[C@H](C)C3=C[C@H]12` (tested in a mixture with another compound), the TGI came out at 3.31 µM with BT-549 breast; 5.41 µM with SK-MEL-2 melanoma; 3.57 µM in the experiment on UO-31 renal; 6.98 µM with ACHN renal; 5.34 µM with HT29 colon; 3.26 µM with SR leukemia. Further, the TGI with M14 melanoma worked out at 2.75 µM; with SK-MEL-28 melanoma, 5.13 µM; in the experiment on NCI-H460 lung it was 14.3 µM; in the experiment on CAKI-1 renal, 3.57 µM.

Turning to `CCOc1cc(/C=C/C(=O)CC(=O)/C=C/c2ccc(OC(=O)CNc3nc4ccc(OC)cc4s3)c(OCC)c2)ccc1OC(=O)CNc1nc2ccc(OC)cc2s1`, the GI50 with BT-549 breast is 2620 nM; in the experiment with SK-MEL-2 melanoma, 4.94 µM; in the experiment with UO-31 renal, 2580 nM; in the experiment with ACHN renal it was 14.2 µM; in the experiment on HT29 colon, 2280 nM; in the experiment on SR leukemia it was 1770 nM. For the same compound, the GI50 in the experiment with M14 melanoma was 5.18 µM; in the experiment with SK-MEL-28 melanoma it was 3.54 µM; with NCI-H460 lung, 5100 nM; with CAKI-1 renal it was 11400 nM. Besides, the TGI was 8.78 µM in the experiment on BT-549 breast; 29.1 µM in the experiment on SK-MEL-2 melanoma; above 100 µM in the experiment on UO-31 renal; 60.2 µM with ACHN renal; 4.8 µM in the experiment with HT29 colon; 4.66 µM with SR leukemia. In addition, the TGI stood at 22.5 µM in the experiment with M14 melanoma, 12.2 µM in the experiment on SK-MEL-28 melanoma, 23.4 µM in the experiment on NCI-H460 lung and 53.3 µM with CAKI-1 renal.

Consider `O=C(c1ccccc1)c1nc2ccc(Cl)cc2cc1C(Br)Br`, for which the TGI is 1.12 µM with BT-549 breast; 1.88 µM with SK-MEL-2 melanoma; 1.27 µM in the experiment with UO-31 renal; 0.662 µM in the experiment with ACHN renal; 0.743 µM with HT29 colon; 21.2 µM with SR leukemia. Further, the TGI was 5.65 µM with M14 melanoma, 0.814 µM in the experiment with SK-MEL-28 melanoma, 1.31 µM in the experiment on NCI-H460 lung and 1.75 µM in the experiment with CAKI-1 renal.

For `CCn1c(-c2nonc2N)nc2cnc(Oc3cccc(NC(=O)c4ccc(OCCN5CCOCC5)cc4)c3)cc21`, the GI50 in the experiment on BT-549 breast is 438 nM; with SK-MEL-2 melanoma, 7.54 µM; in the experiment on UO-31 renal, 8.9 nM; with ACHN renal it was 2.17 µM; with HT29 colon, 10700 nM; in the experiment on SR leukemia, 886 nM. Besides, the GI50 in the experiment on M14 melanoma was 12.7 µM; in the experiment on SK-MEL-28 melanoma, above 20.1 µM; in the experiment with NCI-H460 lung, 2300 nM; in the experiment with CAKI-1 renal it was 116 nM. For the same compound, the TGI with BT-549 breast is 15.3 µM; in the experiment on SK-MEL-2 melanoma, above 25 µM; with UO-31 renal, 5.07 µM; in the experiment with ACHN renal, above 25 µM; with HT29 colon it was above 25 µM; with SR leukemia, above 25 µM. The TGI in the experiment on M14 melanoma was above 25 µM; in the experiment on SK-MEL-28 melanoma, above 25 µM; with NCI-H460 lung it was above 25 µM; in the experiment on CAKI-1 renal, above 17.9 µM.
